Paper PMC3493529, “Molecular and Pharmacological Characterization of Serotonin 5-HT2α and 5-HT7 Receptors in the Salivary Glands of the Blowfly Calliphora vicina” (PLoS ONE, 2012)
Like-named read-outs stand apart in the source and are kept apart here.

Experiments:
Cv5-HT2α [1] = target: T1, Cv5-HT2α (Calliphora vicina, UniProt I7JA47); test: Ca2+ signals (Fluo-4) in Cv5-HT2α-expressing HEK 293 cells, agonists; type: cell-based; conditions: for effect on [Ca2+]i in Cv5-HT2α-expressing cells: 1 µM biogenic amine, non-transfected cells as control; for EC50 / Cv5-HT2α EC50 / Cv5-HT2α log EC50: Cv5-HT2α-expressing HEK 293 cells; for Cv5-HT2α EC50 / Cv5-HT2α log EC50: Ca2+-dependent Fluo-4 signal
Procedure: (§1) We applied a previously established protocol to generate cell lines that constitutively expressed either Cv5-HT2α or Cv5-HT7. […] (flpTM cells, provided by Sibion biosciences GmbH, Jülich, Germany). Approximately 8 µg of the respective expression vectors were introduced into ∼4×10^5 cells by a modified calcium-phosphate method. Stably transfected cells were selected in the presence of the antibiotics Blasticidin (0.1 mg/ml; Cv5-HT2α) or G418 (0.8 mg/ml; Cv5-HT7). Expression of Cv5-HT2α and Cv5-HT7 was monitored by Western blotting with commercially available anti-His antibodies (anti-6x His Epitope Tag; Rockland Immunochemicals Inc, Gilbertsville, USA) and anti-HA antibodies (clone 3F10; Roche, Penzberg, Germany), respectively.
(§2) The ability of Cv5-HT2α to induce Ca^2+ signals in the transfected cell line was measured with the Ca^2+-sensitive dye Fluo-4. Similarly, Cv5-HT7-induced cAMP production was indirectly monitored by the cAMP-dependent activation of the cyclic nucleotide-gated ion channel in flpTM cells (see above). The cyclic nucleotide-gated ion channel is permeable to Ca^2+ ions and thus an increase in [cAMP]i leads to an influx of Ca^2+ ions, which can be detected with Fluo-4. […] After 1 h, the loading solution was substituted for dye-free ES. To inhibit cAMP hydrolysis in Cv5-HT7-expressing cells, ES containing 100 µM isobutylmethylxanthine (IBMX) was used. Plates were transferred into a fluorescence reader (FLUOstar Omega; bmg, Offenburg, Germany) and Fluo-4 fluorescence was monitored. […] Fluorescence emission was detected at 520 nm. Once the basal fluorescence in each well had reached a stable value, various concentrations of the respective ligands were added. The resulting changes in Fluo-4 fluorescence were recorded automatically.

Cv5-HT7 [2] = target: T2, Cv5-HT7 (Calliphora vicina, UniProt I7IA71); test: cAMP-dependent CNG channel Ca2+ influx (Fluo-4) in Cv5-HT7-expressing flpTM cells, agonists; type: cell-based; conditions: for EC50 / Cv5-HT7 log EC50: Cv5-HT7-expressing flpTM cells, 100 µM IBMX
Procedure: as §1, §2

Cv5-HT7 [3] = target: T2, Cv5-HT7; test: Direct cAMP quantification (cAMP-Screen System) in Cv5-HT7-expressing cells; type: cell-based; conditions: 1 µM biogenic amine; 100 µM IBMX
Procedure: The Cv5-HT7-expressing cell line was also used to determine receptor-induced cAMP production in response to various biogenic amines directly. Assays to quantify cAMP amounts were performed as described earlier by using the cAMP-Screen System (Applied Biosystems, Darmstadt, Germany).

blowfly salivary glands [4] = test: Transepithelial potential (TEP) of blowfly salivary glands, agonists; type: cell-based, Calliphora vicina; design: key to negative TEP phase / positive TEP phase: ++: high amplitude; +: low amplitude; -: no apparent effect; -/+: variable effect
Procedure: The abdominal portions of salivary glands were dissected in physiological saline (in mM: 128 NaCl, 10 KCl, 2 CaCl2, 2.7 MgCl2, 3 Na-glutamate, 2.8 maleic acid, 10 D-glucose and 10 Tris-HCl, pH 7.2). Measurements of transepithelial potential (TEP) were performed by the oil-gap method with a DPA-2F differential amplifier (npi Electronic Instruments, Tamm, Germany). Data were sampled and digitized at 1 Hz (KUSB-3102 module for AD-conversion; Keithley, Germering, Germany) by using the software TestPoint (v4.1; Capital Equipment Corp, Billerica, MA, USA) for data acquisition and storage.

blowfly salivary glands [5] = test system: blowfly salivary glands; design: method as in PMID 6272697, PMID 4339528, PMID 16621952; conditions: cAMP formation, electrical response, luminal acidification and fluid secretion; read-out: 5-HT concentration eliciting the half-maximal effect in blowfly salivary glands; cited from earlier work
salivary glands = test system: salivary glands; design: method as in PMID 9097929; conditions: read-out: EC50 of Ca2+ responses in salivary glands; cited from earlier work
Cv5-HT2α [6] = target: T1, Cv5-HT2α; test: Inhibition of 5-HT-induced Ca2+ signals in Cv5-HT2α-expressing cells; type: cell-based
Procedure: as §1, with “Cv5-HT7. For Cv5-HT2α expression, human embryonic kidney cells (HEK 293; ECACC, Salisbury, UK) were chosen.” for “Cv5-HT7.”
(§3) The ability of Cv5-HT2α to induce Ca^2+ signals in the transfected cell line was measured with the Ca^2+-sensitive dye Fluo-4. Similarly, Cv5-HT7-induced cAMP production was indirectly monitored by the cAMP-dependent activation of the cyclic nucleotide-gated ion channel in flpTM cells (see above). The cyclic nucleotide-gated ion channel is permeable to Ca^2+ ions and thus an increase in [cAMP]i leads to an influx of Ca^2+ ions, which can be detected with Fluo-4. Cells were grown in 96-well plates to a density of ∼3×10^4 (Cv5-HT2α) or 1.5×10^4 (Cv5-HT7) and then incubated in extracellular solution (ES in mM: 120 NaCl, 5 KCl, 2 CaCl2, 2 MgCl2, 10 glucose, 10 HEPES, pH 7.4) containing 3 mM probenecid, 0.02% (w/v) Pluronic® F-127 (Sigma) and 2 µM Fluo-4AM (Invitrogen). After 1 h, the loading solution was substituted for dye-free ES. To inhibit cAMP hydrolysis in Cv5-HT7-expressing cells, ES containing 100 µM isobutylmethylxanthine (IBMX) was used. Plates were transferred into a fluorescence reader (FLUOstar Omega; bmg, Offenburg, Germany) and Fluo-4 fluorescence was monitored. The excitation wavelength was 485 nm. Fluorescence emission was detected at 520 nm. Once the basal fluorescence in each well had reached a stable value, various concentrations of the respective ligands were added. The resulting changes in Fluo-4 fluorescence were recorded automatically.
(§4) Changes in Ca^2+-dependent Fluo-4 signals were registered automatically. Data represent the means±SD of eight replicates. […] Relative fluorescence (%) is normalized to the values obtained with 100 nM 5-HT in the absence of antagonists. […] Relative fluorescence (%) is normalized to the values obtained with 6 nM 5-HT in the absence of antagonists.

Cv5-HT7 [7] = target: T2, Cv5-HT7; test: Inhibition of 5-HT-induced Fluo-4 signals in Cv5-HT7-expressing cells; type: cell-based; conditions: in the presence of 6 nM 5-HT
Procedure: as §1, with “Cv5-HT7. For Cv5-HT2α expression, human embryonic kidney cells (HEK 293; ECACC, Salisbury, UK) were chosen.” for “Cv5-HT7.”
as §3, §4

[8] = Cv5-HT2α EC50, Ca2+-dependent Fluo-4 signal
[9] = Cv5-HT2α log EC50, Ca2+-dependent Fluo-4 signal
[10] = Fluo-4 signal, read-out: Cv5-HT7 EC50
[11] = Cv5-HT7 log EC50, Fluo-4 signal

T1 sequence (I7JA47 entry or part of it): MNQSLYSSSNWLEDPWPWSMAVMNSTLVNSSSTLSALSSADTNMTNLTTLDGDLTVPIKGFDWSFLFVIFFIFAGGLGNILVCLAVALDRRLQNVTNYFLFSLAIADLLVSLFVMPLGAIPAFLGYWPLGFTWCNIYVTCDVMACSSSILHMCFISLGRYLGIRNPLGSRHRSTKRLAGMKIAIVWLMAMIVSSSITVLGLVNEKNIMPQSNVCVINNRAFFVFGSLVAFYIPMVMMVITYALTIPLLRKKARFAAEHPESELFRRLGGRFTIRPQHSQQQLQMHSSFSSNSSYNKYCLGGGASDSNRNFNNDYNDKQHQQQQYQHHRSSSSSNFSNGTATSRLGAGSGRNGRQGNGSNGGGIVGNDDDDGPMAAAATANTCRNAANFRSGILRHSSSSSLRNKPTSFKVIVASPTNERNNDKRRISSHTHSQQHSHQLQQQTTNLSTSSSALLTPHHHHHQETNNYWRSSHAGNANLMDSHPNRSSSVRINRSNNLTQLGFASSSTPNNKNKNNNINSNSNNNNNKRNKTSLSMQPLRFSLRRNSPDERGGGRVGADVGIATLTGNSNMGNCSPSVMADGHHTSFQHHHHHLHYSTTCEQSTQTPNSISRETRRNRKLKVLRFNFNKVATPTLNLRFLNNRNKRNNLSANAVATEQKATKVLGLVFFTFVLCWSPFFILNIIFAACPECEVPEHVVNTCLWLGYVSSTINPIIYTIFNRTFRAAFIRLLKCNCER
T2 sequence (I7IA71 entry or part of it): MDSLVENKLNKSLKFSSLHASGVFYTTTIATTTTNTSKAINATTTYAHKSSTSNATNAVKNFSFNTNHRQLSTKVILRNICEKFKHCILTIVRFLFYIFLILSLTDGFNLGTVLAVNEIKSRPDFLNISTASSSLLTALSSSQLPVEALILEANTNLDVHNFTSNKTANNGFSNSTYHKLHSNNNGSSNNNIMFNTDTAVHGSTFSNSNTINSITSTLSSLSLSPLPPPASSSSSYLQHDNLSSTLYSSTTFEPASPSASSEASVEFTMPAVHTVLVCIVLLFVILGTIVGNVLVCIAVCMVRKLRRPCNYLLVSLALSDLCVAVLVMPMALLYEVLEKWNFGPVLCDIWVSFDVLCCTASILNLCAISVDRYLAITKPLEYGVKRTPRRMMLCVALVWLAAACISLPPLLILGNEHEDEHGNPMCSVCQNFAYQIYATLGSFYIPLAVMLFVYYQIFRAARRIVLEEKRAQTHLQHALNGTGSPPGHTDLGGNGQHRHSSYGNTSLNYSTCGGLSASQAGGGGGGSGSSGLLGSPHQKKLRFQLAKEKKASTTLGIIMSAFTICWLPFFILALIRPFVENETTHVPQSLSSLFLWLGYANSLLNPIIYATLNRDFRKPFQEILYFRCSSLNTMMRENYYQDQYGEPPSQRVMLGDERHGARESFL

NCCc1c[nH]c2ccc(O)cc12 [5-HT, 5-hydroxytryptamine]
effect on [Ca2+]i in Cv5-HT2α-expressing cells (Cv5-HT2α [1]): increase of [Ca^2+]i | EC50 (Cv5-HT2α [1]; [8]): 24 nM | EC50 (Cv5-HT2α [1]; [9]): 24 nM | EC50 (Cv5-HT7 [2]; [10]): 4 nM | EC50 (Cv5-HT7 [2]; Fluo-4 signal, read-out: Cv5-HT7 log EC50 (converted)): 4.07 nM | effect on [cAMP]i in Cv5-HT7-expressing cells (Cv5-HT7 [3]): rise of [cAMP]i | TEP change of salivary glands (blowfly salivary glands [4]; 30 nM): characteristic biphasic change in the TEP | EC50 (blowfly salivary glands [5]): 1 to 6 nM | EC50 (salivary glands): 2.8 nM

COc1ccc2[nH]cc(CCN)c2c1 [5-MeOT, 5-methoxytryptamine]
EC50 (Cv5-HT2α [1]; [8]): 67 nM | EC50 (Cv5-HT2α [1]; [9]): 67.6 nM | EC50 (Cv5-HT7 [2]; Cv5-HT7 EC50, Fluo-4 signal): 950 nM | EC50 (Cv5-HT7 [2]; [11]): 955 nM | TEP change of salivary glands (blowfly salivary glands [4]; 30 nM or 100 nM): only a negative-going TEP change | negative TEP phase (blowfly salivary glands [4]; 0.03-0.1 µM): ++ | positive TEP phase (blowfly salivary glands [4]; 0.03-0.1 µM): - | reversibility (blowfly salivary glands [4]; 0.03-0.1 µM): yes | negative TEP phase (blowfly salivary glands [4]; 1-100 µM): ++ | positive TEP phase (blowfly salivary glands [4]; 1-100 µM): + | reversibility (blowfly salivary glands [4]; 1-100 µM): yes | TEP change of salivary glands (blowfly salivary glands [4]; 1–100 µM): biphasic response

Cc1nn(C)c(C)c1-c1cccc2c1CC[C@H](N(C)C)C2 [AS 19, (2S)-(+)-5-(1,3,5-Trimethylpyrazol-4-yl)-2-(dimethylamino)tetralin]
Cv5-HT2α EC50 (Cv5-HT2α [1]): no effect | Cv5-HT2α log EC50 (Cv5-HT2α [1]): no effect | Cv5-HT7 log EC50 (Cv5-HT7 [2]; Fluo-4 signal): −6.52±0.04 | EC50 (Cv5-HT7 [2]; [10]): 300 nM | negative TEP phase (blowfly salivary glands [4]; 100 µM): - | positive TEP phase (blowfly salivary glands [4]; 100 µM): -/+ | reversibility (blowfly salivary glands [4]; 100 µM): yes | TEP change of salivary glands (blowfly salivary glands [4]; 1–100 µM): only positive-going changes in the TEP

CCN(CC)C(=O)N[C@H]1C=C2c3cccc4[nH]cc(c34)C[C@H]2N(C)C1 [R(+)-lisuride]
Cv5-HT2α EC50 (Cv5-HT2α [1]): no effect | Cv5-HT2α log EC50 (Cv5-HT2α [1]): no effect | Cv5-HT7 log EC50 (Cv5-HT7 [2]; Fluo-4 signal): −8.75±0.05 | EC50 (Cv5-HT7 [2]; [10]): 2 nM | efficacy at Cv5-HT7 compared to 5-HT (Cv5-HT7 [2]; highest agonist concentrations, normalized to 5-HT maximum): very low efficacy | TEP change of salivary glands (blowfly salivary glands [4]; 30 nM): irreversible positive-going TEP change | negative TEP phase (blowfly salivary glands [4]; 0.03-0.3 µM): - | positive TEP phase (blowfly salivary glands [4]; 0.03-0.3 µM): ++ | reversibility (blowfly salivary glands [4]; 0.03-0.3 µM): no (within 20 min)

NCCc1ccc(O)c(O)c1 [dopamine]
effect on [Ca2+]i in Cv5-HT2α-expressing cells (Cv5-HT2α [1]): only 5-HT led to an increase of [Ca^2+]i | effect on [cAMP]i in Cv5-HT7-expressing cells (Cv5-HT7 [3]): only 5-HT led to a rise of [cAMP]i

CC[C@@H](CO)NC(=O)[C@@H]1C=C2c3cccc4c3c(cn4C)C[C@H]2N(C)C1 [methysergide]
Cv5-HT2α EC50 (Cv5-HT2α [1]): no effect | Cv5-HT2α log EC50 (Cv5-HT2α [1]): no effect | EC50 (Cv5-HT7 [2]; Cv5-HT7 EC50, Fluo-4 signal): 770 nM | EC50 (Cv5-HT7 [2]; [11]): 776 nM | IC50 (Cv5-HT2α [6]; Cv5-HT2α IC50, in the presence of 100 nM 5-HT): 20000 nM | IC50 (Cv5-HT2α [6]; Cv5-HT2α log IC50, in the presence of 100 nM 5-HT): 19500 nM | Cv5-HT7 IC50 (Cv5-HT7 [7]): agonistic effect | Cv5-HT7 log IC50 (Cv5-HT7 [7]): agonistic effect | TEP change of salivary glands (blowfly salivary glands [4]; 3 µM): complex biphasic TEP responses | negative TEP phase (blowfly salivary glands [4]; 3 µM): + | reversibility (blowfly salivary glands [4]; 3 µM): yes

NCC(O)c1ccc(O)cc1 (stereo not shown) [octopamine]
effect on [Ca2+]i in Cv5-HT2α-expressing cells (Cv5-HT2α [1]): only 5-HT led to an increase of [Ca^2+]i | effect on [cAMP]i in Cv5-HT7-expressing cells (Cv5-HT7 [3]): only 5-HT led to a rise of [cAMP]i

NCCc1ccc(O)cc1 [tyramine]
effect on [Ca2+]i in Cv5-HT2α-expressing cells (Cv5-HT2α [1]): only 5-HT led to an increase of [Ca^2+]i | effect on [cAMP]i in Cv5-HT7-expressing cells (Cv5-HT7 [3]): only 5-HT led to a rise of [cAMP]i
